# According to the OligoGym collection:
# HELM strings list units from the 5' end as sugar, base in round brackets, then linkage (d deoxyribose, r ribose, m 2'-O-methyl, p phosphodiester). Strings are as the collection lists them, not checked against the first reports. ss, as = sense and antisense strand; [lna] = locked nucleic acid (LNA); [hna] = hexitol nucleic acid; [fl2r] = 2'-fluoro
# Conditions: siRNA
# Further: test system not given here.
row,Substance,target mRNA knockdown
1,RNA1{r(G)p.r(A)p.r(A)p.r(G)p.r(G)p.r(G)p.r(G)p.r(A)p.r(A)p.r(A)p.r(U)p.m(C)p.r(U)p.r(G)p.r(U)p.r(G)p.r(G)p.r(U)p.r(U)p.r(T)p.r(T)}|RNA2{r(A)p.r(A)p.r(C)p.m(C)p.r(A)p.r(C)p.r(A)p.r(G)p.r(A)p.r(U)p.r(U)p.r(U)p.r(C)p.r(C)p.r(C)p.r(C)p.r(U)p.r(U)p.r(C)p.r(T)p.r(T)}$$$RNA1{StrandType:ss}|RNA2{StrandType:as}$,65%
2,RNA1{r(G)p.r(A)p.r(A)p.r(G)p.r(G)p.r(G)p.r(G)p.r(A)p.r(A)p.r(A)p.r(U)p.r(C)p.m(U)p.m(G)p.m(U)p.m(G)p.r(G)p.r(U)p.r(U)p.r(T)p.r(T)}|RNA2{r(A)p.r(A)p.r(C)p.m(C)p.m(A)p.m(C)p.m(A)p.r(G)p.r(A)p.r(U)p.r(U)p.r(U)p.r(C)p.r(C)p.r(C)p.r(C)p.r(U)p.r(U)p.r(C)p.r(T)p.r(T)}$$$RNA1{StrandType:ss}|RNA2{StrandType:as}$,61%
3,RNA1{r(G)p.r(A)p.r(C)p.[fl2r](C)p.r(A)p.r(C)p.r(G)p.r(A)p.r(A)p.r(G)p.r(A)p.r(G)p.r(U)p.[fl2r](U)p.r(A)p.r(A)p.r(C)p.r(C)p.r(C)p.r(T)p.r(T)}|RNA2{r(G)p.r(G)p.r(G)p.r(U)p.[fl2r](U)p.r(A)p.r(A)p.r(C)p.r(U)p.r(C)p.r(U)p.r(U)p.r(C)p.r(G)p.[fl2r](U)p.r(G)p.r(G)p.r(U)p.r(C)p.r(T)p.r(T)}$$$RNA1{StrandType:ss}|RNA2{StrandType:as}$,85%
4,RNA1{r(G)p.r(A)p.r(C)p.r(A)p.r(A)p.r(G)p.r(G)p.r(G)p.r(A)p.r(A)p.r(G)p.r(G)p.r(U)p.m(U)p.r(A)p.r(G)p.r(C)p.r(C)p.r(U)p.r(T)p.r(T)}|RNA2{r(A)p.r(G)p.r(G)p.r(C)p.m(U)p.r(A)p.r(A)p.r(C)p.r(C)p.r(U)p.r(U)p.r(C)p.r(C)p.r(C)p.r(U)p.r(U)p.r(G)p.r(U)p.r(C)p.r(T)p.r(T)}$$$RNA1{StrandType:ss}|RNA2{StrandType:as}$,72%
5,RNA1{r(G)p.r(A)p.r(C)p.r(C)p.r(A)p.r(C)p.r(G)p.r(A)p.r(A)p.r(G)p.r(A)p.r(G)p.r(U)p.[fl2r](U)p.r(A)p.r(A)p.r(C)p.r(C)p.r(C)p.r(T)p.r(T)}|RNA2{r(G)p.r(G)p.r(G)p.r(U)p.[fl2r](U)p.r(A)p.r(A)p.r(C)p.r(U)p.r(C)p.r(U)p.r(U)p.r(C)p.r(G)p.r(U)p.r(G)p.r(G)p.r(U)p.r(C)p.r(T)p.r(T)}$$$RNA1{StrandType:ss}|RNA2{StrandType:as}$,82%
6,RNA1{r(G)p.r(A)p.r(C)p.r(G)p.[hna](U)p.r(A)p.r(A)p.[hna](A)p.r(C)p.r(G)p.[hna](G)p.r(C)p.r(C)p.[hna](A)p.r(C)p.r(A)p.r(A)p.r(G)p.[hna](U)p.[hna](U)p.d(T)}|RNA2{[fl2r](A)p.m(C)p.[fl2r](U)p.m(U)p.[fl2r](G)p.m(U)p.[fl2r](G)p.m(G)p.[fl2r](C)p.m(C)p.[fl2r](G)p.m(U)p.[fl2r](U)p.m(U)p.[fl2r](A)p.m(C)p.[fl2r](G)p.m(U)p.[fl2r](C)p.m(G)p.[fl2r](C)}$$$RNA1{StrandType:ss}|RNA2{StrandType:as}$,23.3%
7,RNA1{r(G)p.r(A)p.r(C)p.r(G)p.[hna](U)p.r(A)p.r(A)p.[hna](A)p.r(C)p.r(G)p.[hna](G)p.r(C)p.r(C)p.[hna](A)p.r(C)p.r(A)p.r(A)p.r(G)p.[hna](U)p.[hna](U)p.d(T)}|RNA2{r(A)p.[hna](C)p.r(U)p.r(U)p.r(G)p.r(U)p.r(G)p.r(G)p.r(C)p.r(C)p.r(G)p.r(U)p.r(U)p.r(U)p.r(A)p.r(C)p.r(G)p.[hna](U)p.[hna](C)p.[hna](G)p.d(T)}$$$RNA1{StrandType:ss}|RNA2{StrandType:as}$,23.2%
8,RNA1{r(G)p.r(A)p.r(C)p.r(G)p.[hna](U)p.r(A)p.r(A)p.[hna](A)p.r(C)p.r(G)p.[hna](G)p.r(C)p.r(C)p.[hna](A)p.r(C)p.r(A)p.r(A)p.r(G)p.[hna](U)p.[hna](U)p.d(T)}|RNA2{r(A)p.m(C)p.r(U)p.r(U)p.r(G)p.r(U)p.r(G)p.r(G)p.r(C)p.r(C)p.r(G)p.r(U)p.r(U)p.r(U)p.r(A)p.r(C)p.r(G)p.r(U)p.r(C)p.r(G)p.r(C)}$$$RNA1{StrandType:ss}|RNA2{StrandType:as}$,44.7%
9,RNA1{r(G)p.r(A)p.r(C)p.r(G)p.[hna](U)p.r(A)p.r(A)p.[hna](A)p.r(C)p.r(G)p.[hna](G)p.r(C)p.r(C)p.[hna](A)p.r(C)p.r(A)p.r(A)p.r(G)p.[hna](U)p.[hna](U)p.d(T)}|RNA2{r(A)p.r(C)p.[hna](U)p.r(U)p.r(G)p.r(U)p.r(G)p.r(G)p.r(C)p.r(C)p.r(G)p.r(U)p.r(U)p.r(U)p.r(A)p.r(C)p.r(G)p.[hna](U)p.[hna](C)p.[hna](G)p.d(T)}$$$RNA1{StrandType:ss}|RNA2{StrandType:as}$,51.4%
10,RNA1{r(G)p.r(A)p.r(C)p.r(G)p.[hna](U)p.r(A)p.r(A)p.[hna](A)p.r(C)p.r(G)p.[hna](G)p.r(C)p.r(C)p.[hna](A)p.r(C)p.r(A)p.r(A)p.r(G)p.[hna](U)p.[hna](U)p.d(T)}|RNA2{r(A)p.r(C)p.r(U)p.r(U)p.r(G)p.r(U)p.r(G)p.r(G)p.r(C)p.r(C)p.r(G)p.r(U)p.r(U)p.r(U)p.r(A)p.r(C)p.r(G)p.[hna](U)p.[hna](C)p.[hna](G)p.d(T)}$$$RNA1{StrandType:ss}|RNA2{StrandType:as}$,74.2%
11,RNA1{r(G)p.r(A)p.r(C)p.r(G)p.[hna](U)p.r(A)p.r(A)p.[hna](A)p.r(C)p.r(G)p.[hna](G)p.r(C)p.r(C)p.[hna](A)p.r(C)p.r(A)p.r(A)p.r(G)p.[hna](U)p.[hna](U)p.d(T)}|RNA2{r(A)p.r(C)p.r(U)p.r(U)p.r(G)p.r(U)p.r(G)p.r(G)p.r(C)p.r(C)p.r(G)p.r(U)p.r(U)p.r(U)p.r(A)p.r(C)p.r(G)p.r(U)p.r(C)p.r(G)p.r(C)}$$$RNA1{StrandType:ss}|RNA2{StrandType:as}$,87.4%
12,RNA1{r(G)p.r(A)p.r(C)p.r(G)p.[hna](U)p.r(A)p.r(A)p.[hna](A)p.r(C)p.r(G)p.[hna](G)p.r(C)p.r(C)p.[hna](A)p.r(C)p.r(A)p.r(A)p.r(G)p.[hna](U)p.r(U)p.d(T)}|RNA2{r(A)p.[hna](C)p.r(U)p.r(U)p.r(G)p.r(U)p.r(G)p.r(G)p.[hna](C)p.r(C)p.r(G)p.r(U)p.r(U)p.r(U)p.r(A)p.r(C)p.r(G)p.[hna](U)p.[hna](C)p.[hna](G)p.d(T)}$$$RNA1{StrandType:ss}|RNA2{StrandType:as}$,0%
13,RNA1{r(G)p.r(A)p.r(C)p.r(G)p.[hna](U)p.r(A)p.r(A)p.[hna](A)p.r(C)p.r(G)p.[hna](G)p.r(C)p.r(C)p.[hna](A)p.r(C)p.r(A)p.r(A)p.r(G)p.[hna](U)p.r(U)p.d(T)}|RNA2{r(A)p.r(C)p.[lna](T)p.r(U)p.r(G)p.[lna](T)p.r(G)p.r(G)p.r(C)p.r(C)p.r(G)p.r(U)p.r(U)p.[lna](T)p.r(A)p.r(C)p.r(G)p.[lna](T)p.r(C)p.[lna](G)p.[lna](C)}$$$RNA1{StrandType:ss}|RNA2{StrandType:as}$,7.9%
14,RNA1{r(G)p.r(A)p.r(C)p.r(G)p.[hna](U)p.r(A)p.r(A)p.[hna](A)p.r(C)p.r(G)p.[hna](G)p.r(C)p.r(C)p.[hna](A)p.r(C)p.r(A)p.r(A)p.r(G)p.[hna](U)p.r(U)p.d(T)}|RNA2{r(A)p.r(C)p.r(U)p.r(U)p.r(G)p.r(U)p.r(G)p.r(G)p.r(C)p.r(C)p.r(G)p.r(U)p.r(U)p.r(U)p.r(A)p.r(C)p.r(G)p.r(U)p.[lna](C)p.[lna](G)p.r(C)}$$$RNA1{StrandType:ss}|RNA2{StrandType:as}$,83.9%
15,RNA1{r(G)p.r(A)p.r(C)p.r(G)p.[hna](U)p.r(A)p.r(A)p.[hna](A)p.r(C)p.r(G)p.[hna](G)p.r(C)p.r(C)p.[hna](A)p.r(C)p.r(A)p.r(A)p.r(G)p.r(U)p.[hna](U)p.d(T)}|RNA2{[fl2r](A)p.m(C)p.[fl2r](U)p.m(U)p.[fl2r](G)p.m(U)p.[fl2r](G)p.m(G)p.[fl2r](C)p.m(C)p.[fl2r](G)p.m(U)p.[fl2r](U)p.m(U)p.[fl2r](A)p.m(C)p.[fl2r](G)p.m(U)p.[fl2r](C)p.m(G)p.[fl2r](C)}$$$RNA1{StrandType:ss}|RNA2{StrandType:as}$,13.2%
16,RNA1{r(G)p.r(A)p.r(C)p.r(G)p.[hna](U)p.r(A)p.r(A)p.[hna](A)p.r(C)p.r(G)p.[hna](G)p.r(C)p.r(C)p.[hna](A)p.r(C)p.r(A)p.r(A)p.r(G)p.r(U)p.[hna](U)p.d(T)}|RNA2{r(A)p.[hna](C)p.r(U)p.r(U)p.r(G)p.r(U)p.r(G)p.r(G)p.r(C)p.r(C)p.r(G)p.r(U)p.r(U)p.r(U)p.r(A)p.r(C)p.r(G)p.[hna](U)p.[hna](C)p.[hna](G)p.d(T)}$$$RNA1{StrandType:ss}|RNA2{StrandType:as}$,11.9%
17,RNA1{r(G)p.r(A)p.r(C)p.r(G)p.[hna](U)p.r(A)p.r(A)p.[hna](A)p.r(C)p.r(G)p.[hna](G)p.r(C)p.r(C)p.[hna](A)p.r(C)p.r(A)p.r(A)p.r(G)p.r(U)p.[hna](U)p.d(T)}|RNA2{r(A)p.m(C)p.r(U)p.r(U)p.r(G)p.r(U)p.r(G)p.r(G)p.r(C)p.r(C)p.r(G)p.r(U)p.r(U)p.r(U)p.r(A)p.r(C)p.r(G)p.r(U)p.r(C)p.r(G)p.r(C)}$$$RNA1{StrandType:ss}|RNA2{StrandType:as}$,38%
18,RNA1{r(G)p.r(A)p.r(C)p.r(G)p.[hna](U)p.r(A)p.r(A)p.[hna](A)p.r(C)p.r(G)p.[hna](G)p.r(C)p.r(C)p.[hna](A)p.r(C)p.r(A)p.r(A)p.r(G)p.r(U)p.[hna](U)p.d(T)}|RNA2{r(A)p.r(C)p.[hna](U)p.r(U)p.r(G)p.r(U)p.r(G)p.r(G)p.r(C)p.r(C)p.r(G)p.r(U)p.r(U)p.r(U)p.r(A)p.r(C)p.r(G)p.[hna](U)p.[hna](C)p.[hna](G)p.d(T)}$$$RNA1{StrandType:ss}|RNA2{StrandType:as}$,25.2%
19,RNA1{r(G)p.r(A)p.r(C)p.r(G)p.[hna](U)p.r(A)p.r(A)p.[hna](A)p.r(C)p.r(G)p.[hna](G)p.r(C)p.r(C)p.[hna](A)p.r(C)p.r(A)p.r(A)p.r(G)p.r(U)p.[hna](U)p.d(T)}|RNA2{r(A)p.r(C)p.r(U)p.r(U)p.r(G)p.r(U)p.r(G)p.r(G)p.r(C)p.r(C)p.r(G)p.r(U)p.r(U)p.r(U)p.r(A)p.r(C)p.r(G)p.[hna](U)p.[hna](C)p.[hna](G)p.d(T)}$$$RNA1{StrandType:ss}|RNA2{StrandType:as}$,48.7%
